From US12157730B2, “Heteroaryl derivative, method for producing same, and pharmaceutical composition comprising same as effective component” (VORONOI INC., priority 2019, dated 2024)

The compounds below were run against T1, Ba/F3 cell EGFR Exon20 ins NPH (Homo sapiens, UniProt P00533, INS773NPH) (assay: Ba/F3 cell proliferation suppression, EGFR Exon20 ins NPH). Details: GI50 class; Ba/F3 cell line with NPH inserted at Exon20 of EGFR; 72 hours.
T1 construct: expressed in transfected cells; host or cells: Ba/F3
Type: cell-based
Summary of the method: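 72 h compound exposure, 0.3 nM–50 um (12 points, 3:1 dilution in DMSO); viability by CellTiter-Glo luminescence. Ba/F3 medium: RPMI-1640, 10% FBS, 5 ng/ml IL-3, 1 ug/ml puromycin for transduced cells. GI50 vs control, n=3.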
With C=CC(=O)Nc1cc(Nc2cc(N3OCC[C@@H]3Cc3cccc(Cl)c3F)ncn2)c(OC)cc1N(C)CCN(C)C [compound 1016, N-(5-((6-((S)-3-(3-chloro-2-fluorobenzyl)isoxazolidine-2-yl)pyrimidine-4-yl)amino)-2-((2-(dimethylamino)ethyl)(methyl)amino)-4-methoxyphenyl) acrylamide] the “Ba/F3 (NPH) Activity” value was “A (GI50 < 50 nM)”.
For C=CC(=O)Nc1cc(Nc2cc(N3OCC[C@@H]3c3cccc(C#N)c3)ncn2)c(OC)cc1N1CCC(N2CCN(C)CC2)CC1 [compound 398, N-(5-((6-((R)-3-(3-cyanophenyl)isoxazolidine-2-yl)pyrimidine-4-yl)amino)-4-methoxy-2-(4-(4-methylpiperazine-1-yl)piperidine-1-yl)phenyl) acrylamide], the “Ba/F3 (NPH) Activity” value was “A (GI50 < 50 nM)”.
C=CC(=O)Nc1cc(Nc2cc(N3OCC[C@@H]3c3ccc(F)cc3)ncn2)c(OC)cc1N1CCC(N2C[C@@H](C)O[C@@H](C)C2)CC1 [compound 814, N-(2-(4-((2S,6R)-2,6-dimethylmorpholino)piperidine-1-yl)-5-((6-((R)-3-(4-fluorophenyl)isoxazolidine-2-yl)pyrimidine-4-yl)amino)-4-methoxyphenyl) acrylamide] was tested, and the “Ba/F3 (NPH) Activity” value was “A (GI50 < 50 nM)”.
For C=CC(=O)Nc1cc(Nc2cc(N3OCC[C@@H]3c3cccc(Cl)c3F)ncn2)c(OC)cc1N1CCC(N2C[C@@H](C)N(C3CC3)C[C@H]2C)CC1 [Example 122, N-(5-((6-((R)-3-(3-chloro-2-fluorophenyl)isoxazolidine-2-yl)pyrimidine-4-yl)amino)-2-(4-((2R,5R)-4-cyclopropyl-2,5-dimethylpiperazine-1-yl)piperidine-1-yl)-4-methoxyphenyl) acrylamide], the “Ba/F3 (NPH) Activity” value was “A (GI50 < 50 nM)”.
With C#Cc1cccc([C@H]2CCON2c2cc(Nc3cc(NC(=O)C=C)c(N4CCN(C5CC5)CC4)cc3OC)ncn2)c1 [compound 654, N-(2-(4-cyclopropylpiperazine-1-yl)-5-((6-((R)-3-(3-ethynylphenyl)isoxazolidine-2-yl)pyrimidine-4-yl)amino)-4-methoxyphenyl) acrylamide] the “Ba/F3 (NPH) Activity” value was “B (50 nM ≤ GI50 < 500 nM)”.
C=CC(=O)Nc1cc(Nc2cc(N3OCC[C@@H]3c3c(F)ccc(F)c3F)ncn2)c(OC)cc1N1CCC(N2CCOCC2)CC1 [compound 632, N-(4-methoxy-2-(4-morpholinopiperidine-1-yl)-5-((6-((R)-3-(2,3,6-trifluorophenyl)isoxazolidine-2-yl)pyrimidine-4-yl)amino)phenyl)acrylamide] was tested, and the “Ba/F3 (NPH) Activity” value was “A (GI50 < 50 nM)”.
In the case of C=CC(=O)Nc1cc(Nc2cc(N3OCC[C@@H]3c3ccc(F)c(F)c3)ncn2)c(OC)cc1N1CCN(C)CC1 [compound 458, N-(5-((6-((R)-3-(3,4-difluorophenyl)isoxazolidine-2-yl)pyrimidine-4-yl)amino)-4-methoxy-2-(4-methylpiperazine-1-yl)phenyl)acrylamide], the “Ba/F3 (NPH) Activity” value is reported as “A (GI50 < 50 nM)”.
With C=CC(=O)Nc1cc(Nc2cc(N3OCC[C@@H]3c3ccc(Cl)cc3F)ncn2)c(OC)cc1N1CCN(C)CC1 [compound 372, N-(5-((6-((R)-3-(4-chloro-2-fluorophenyl)isoxazolidine-2-yl)pyrimidine-4-yl)amino)-4-methoxy-2-(4-methylpiperazine-1-yl)phenyl)acrylamide] the “Ba/F3 (NPH) Activity” value was “A (GI50 < 50 nM)”.
With C=CC(=O)Nc1cc(Nc2cc(N3OCC[C@H]3c3c(F)cccc3F)ncn2)c(OC)cc1N1CCC(N2CCN(C3CC3)CC2)CC1 [Example 129, N-(2-(4-(4-cyclopropylpiperazine-1-yl)piperidine-1-yl)-5-((6-((S)-3-(2,6-difluorophenyl)isoxazolidine-2-yl)pyrimidine-4-yl)amino)-4-methoxyphenyl) acrylamide] the “Ba/F3 (NPH) Activity” value was “C (500 nM ≤ GI50 < 5000 nM)”.
C=CC(=O)Nc1cc(Nc2cc(N3OCC[C@@H]3c3ccc(F)c(Cl)c3)ncn2)c(OC)cc1N1CCN(C)CC1 [compound 702, N-(5-((6-((R)-3-(3-chloro-4-fluorophenyl)isoxazolidine-2-yl)pyrimidine-4-yl)amino)-4-methoxy-2-(4-methylpiperazine-1-yl)phenyl)acrylamide] was tested, and the “Ba/F3 (NPH) Activity” value was “A (GI50 < 50 nM)”.
With C=CC(=O)Nc1cc(Nc2cc(N3OCC[C@@H]3c3ccc4ccccc4c3)ncn2)c(OC)cc1N1CCC(N2CCN(C3CCC3)CC2)CC1 [Example 190, N-(2-(4-(4-cyclobutylpiperazine-1-yl)piperidine-1-yl)-4-methoxy-5-((6-((R)-3-(naphthalene-2-yl)isoxazolidine-2-yl)pyrimidine-4-yl)amino)phenyl)acrylamide] the “Ba/F3 (NPH) Activity” value was “B (50 nM ≤ GI50 < 500 nM)”.
In the case of C=CC(=O)Nc1cc(Nc2cc(N3OCC[C@@H]3c3cc(F)cc(F)c3)ncn2)c(OC)cc1N1CCC(N2CCN(C3CC3)C(C)(C)C2)CC1 [Example 106, N-(2-(4-(4-cyclopropyl-3,3-dimethylpiperazine-1-yl)piperidine-1-yl)-5-((6-((R)-3-(3,5-difluorophenyl)isoxazolidine-2-yl)pyrimidine-4-yl)amino)-4-methoxyphenyl) acrylamide], the “Ba/F3 (NPH) Activity” value is reported as “A (GI50 < 50 nM)”.
With C=CC(=O)Nc1cc(Nc2cc(N3OCC[C@@H]3c3ccc(F)c(Cl)c3)ncn2)c(OC)cc1N1CCC(N2CCOCC2)CC1 [compound 720, N-(5-((6-((R)-3-(3-chloro-4-fluorophenyl)isoxazolidine-2-yl)pyrimidine-4-yl)amino)-4-methoxy-2-(4-morpholinopiperidine-1-yl)phenyl)acrylamide] the “Ba/F3 (NPH) Activity” value was “A (GI50 < 50 nM)”.
For C=CC(=O)Nc1cc(Nc2cc(N3OCC[C@@H]3c3ccc(Cl)c(Cl)c3)ncn2)c(OC)cc1N1CCN(CC2CC2)CC1 [compound 687, N-(2-(4-(cyclopropylmethyl)piperazine-1-yl)-5-((6-((R)-3-(3,4-dichlorophenyl)isoxazolidine-2-yl)pyrimidine-4-yl)amino)-4-methoxyphenyl) acrylamide], the “Ba/F3 (NPH) Activity” value was “A (GI50 < 50 nM)”.
In the case of C=CC(=O)Nc1cc(Nc2cc(N3OCC[C@@H]3c3cccc(C#N)c3)ncn2)c(OC)cc1N1CCN(CC)CC1 [compound 396, N-(5-((6-((R)-3-(3-cyanophenyl)isoxazolidine-2-yl)pyrimidine-4-yl)amino)-2-(4-ethylpiperazine-1-yl)-4-methoxyphenyl) acrylamide], the “Ba/F3 (NPH) Activity” value is reported as “B (50 nM ≤ GI50 < 500 nM)”.
With C=CC(=O)Nc1cc(Nc2cc(N3OCC[C@@H]3c3c(F)ccc(F)c3F)ncn2)c(OC)cc1N1CCC(N2CCN(C(C)C)CC2)CC1 [compound 643, N-(2-(4-(4-isopropylpiperazine-1-yl)piperidine-1-yl)-4-methoxy-5-((6-((R)-3-(2,3,6-trifluorophenyl)isoxazolidine-2-yl)pyrimidine-4-yl)amino)phenyl)acrylamide] the “Ba/F3 (NPH) Activity” value was “A (GI50 < 50 nM)”.
C#Cc1cccc([C@H]2CCON2c2cc(Nc3cc(NC(=O)C=C)c(N4CCC(N5CCN(C6CC6)CC5)CC4)cc3OC)ncn2)c1 [Example 165, N-(2-(4-(4-cyclopropylpiperazine-1-yl)piperidine-1-yl)-5-((6-((R)-3-(3-ethynylphenyl)isoxazolidine-2-yl)pyrimidine-4-yl)amino)-4-methoxyphenyl) acrylamide] was tested, and the “Ba/F3 (NPH) Activity” value was “A (GI50 < 50 nM)”.
With C=CC(=O)Nc1cc(Nc2cc(N3OCC[C@@H]3c3cccc(OC)c3)ncn2)c(OC)cc1N1CCN(C2COC2)CC1 [compound 730, N-(4-methoxy-5-((6-((R)-3-(3-methoxyphenyl)isoxazolidine-2-yl)pyrimidine-4-yl)amino)-2-(4-(oxetane-3-yl)piperazine-1-yl)phenyl) acrylamide] the “Ba/F3 (NPH) Activity” value was “B (50 nM ≤ GI50 < 500 nM)”.
In the case of C=CC(=O)Nc1cc(Nc2cc(N3OCC[C@@H]3c3ccc(F)cc3F)ncn2)c(OC)cc1N1CCC(N2CCOCC2)CC1 [compound 378, N-(5-((6-((R)-3-(2,4-difluorophenyl)isoxazolidine-2-yl)pyrimidine-4-yl)amino)-4-methoxy-2-(4-morpholinopiperidine-1-yl)phenyl)acrylamide], the “Ba/F3 (NPH) Activity” value is reported as “A (GI50 < 50 nM)”.
C=CC(=O)Nc1cc(Nc2cc(N3OCC[C@@H]3c3ccc(F)cc3F)ncn2)c(OC)cc1N1CCC(N2C[C@@H]3C[C@H]2CO3)CC1 [compound 381, N-(2-(4-((1S,4S)-2-oxa-5-azabicyclo[2.2.1]heptane-5-yl)piperidine-1-yl)-5-((6-((R)-3-(2,4-difluorophenyl)isoxazolidine-2-yl)pyrimidine-4-yl)amino)-4-methoxyphenyl) acrylamide] was tested, and the “Ba/F3 (NPH) Activity” value was “A (GI50 < 50 nM)”.
With C=CC(=O)Nc1cc(Nc2cc(N3OCC[C@@H]3Cc3cccc(Cl)c3C)ncn2)c(OC)cc1N1CCC(N2CCN(C3CC3)[C@@H](C)C2)CC1 [compound 1028, N-(5-((6-((S)-3-(3-chloro-2-methylbenzyl)isoxazolidine-2-yl)pyrimidine-4-yl)amino)-2-(4-((S)-4-cyclopropyl-3-methylpiperazine-1-yl)piperidine-1-yl)-4-methoxyphenyl) acrylamide] the “Ba/F3 (NPH) Activity” value was “A (GI50 < 50 nM)”.
C=CC(=O)Nc1cc(Nc2cc(N3OCC[C@@H]3c3cccc(Cl)c3F)ncn2)c(OC)cc1N1CCC(N2C[C@H]3CC[C@@H](C2)O3)CC1 [compound 322, N-(2-(4-((1R,5S)-8-oxa-3-azabicyclo[3.2.1]octan-3-yl)piperidine-1-yl)-5-((6-((R)-3-(3-chloro-2-fluorophenyl)isoxazolidine-2-yl)pyrimidine-4-yl)amino)-4-methoxyphenyl) acrylamide] was tested, and the “Ba/F3 (NPH) Activity” value was “A (GI50 < 50 nM)”.
With C=CC(=O)Nc1cc(Nc2cc(N3OCC[C@@H]3c3ccc(F)c(Cl)c3)ncn2)c(OC)cc1N1CCC(N2CCN(CC3CC3)CC2)CC1 [Example 94, N-(5-((6-((R)-3-(3-chloro-4-fluorophenyl)isoxazolidine-2-yl)pyrimidine-4-yl)amino)-2-(4-(4-(cyclopropylmethyl)piperazine-1-yl)piperidine-1-yl)-4-methoxyphenyl) acrylamide] the “Ba/F3 (NPH) Activity” value was “A (GI50 < 50 nM)”.
